Experimental findings from patent US20250228239A1, “MOLECULES HAVING PESTICIDAL UTILITY, AND INTERMEDIATES, COMPOSITIONS, AND PROCESSES, RELATED THERETO” (priority 2024, published 2025) are described below.

Molecules are shown by their SMILES. Read-outs that look alike come from different tables or passages of the source.

Common to all, as to assay type: in vivo
Test [1] relates to Yellow Fever Mosquito (Aedes aegypti, AEDSAE). To be noted: for YFM rating: Table ABC / ABC-DP rating. Put shortly: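 Mortality after 3 days at room temperature is the read-out, scored well by well and converted to a rating. Test molecules came from 4000 ppm stocks in DMSO, further diluted in 90:10 water/acetone, and were exposed to roughly 1-day-old larvae suspended in liver-powder water.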

The subject of test [2] is Beet Armyworm (Spodoptera exigua, LAPHEG). Kind of test: Bioassays on Beet Armyworm (BAW), 128-well diet tray assay. To be noted: Spodoptera exigua. Put shortly:
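One to five second-instar larvae per well on artificial diet surface-treated with 50 μg/cm^2 test molecule (applied in 90:10 acetone-water, dried), eight wells per compound. Trays held vented at 25° C., 14:10 light-dark for five to seven days; percent mortality averaged over the eight wells.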

The subject of test [3] is Green Peach Aphid (Myzus persicae, MYZUPE). Description: Bioassays on Green Peach Aphid (GPA), foliar spray on cabbage seedlings. To be noted: 72 h. In a few lines: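 Percent control (Abbott-corrected versus solvent-sprayed plants) comes from live-aphid counts three days after treatment at about 25° C. Test solution at 200 ppm was sprayed to runoff onto both leaf surfaces of cabbage seedlings infested a day earlier with 20-50 aphids; four replicate pots.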

The test system of test [4] is Cabbage Looper (Trichoplusia ni, TRIPNI). Description: Bioassays on Cabbage Looper (CL), 128-well diet tray assay. Conditions: Trichoplusia ni. In a few lines: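 Each of eight wells receives artificial diet treated at 50 μg/cm^2 with the test molecule, then one to five second-instar larvae. Incubation runs five to seven days at 25° C with a 14:10 light-dark cycle under vented covers. Mortality is scored per well as a percentage and averaged.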

[5] abbreviates: Yellow Fever Mosquito, rating class.
The mark [6] stands for this setting: Beet Armyworm, rating class, read-out: BAW.
Setting [7] is: Green Peach Aphid, rating class, read-out: GPA.
Where [8] appears, read: Cabbage Looper, rating class, read-out: CL.
[9] abbreviates: Beet Armyworm, Table ABC / ABC-DP rating, read-out: BAW rating.
[10] abbreviates: Green Peach Aphid, Table ABC / ABC-DP rating, read-out: GPA rating.
[11] abbreviates: Cabbage Looper, Table ABC / ABC-DP rating, read-out: CL rating.
Setting [12] is: Table ABC: Biological Results, species YFM.
[13] abbreviates: Table ABC: Biological Results, species BAW, read-out: BAW.
Setting [14] is: Table ABC: Biological Results, species GPA, read-out: GPA.
Where [15] appears, read: Table ABC: Biological Results, species CL, read-out: CL.

Turning to `O=C(Nc1ccc(F)c(NC(=O)C(F)(F)F)c1F)c1cc(NC(=O)[C@H]2[C@H](c3ccc(Cl)c(C(F)(F)F)c3)C2(Cl)Cl)ccc1Cl` [F1656, 2-Chloro-5-((1R,3R)-2,2-dichloro-3-(4-chloro-3-(trifluoromethyl)phenyl)cyclopropane-1-carboxamido)-N-(2,4-difluoro-3-(2,2,2-trifluoroacetamido)phenyl)benzamide], the YFM result in test [1] (setting [5]) is “A (80–100)”. In addition, the pest or weed control at 50 µg/cm2 in test [2] (setting [6]) and in test [4] (setting [8]) was 50 to 100% throughout. For the same compound, in test [3] (setting [7]), the pest or weed control at 200 µg/mL is 0 to 80%.

As for `Cc1cc(NC(=O)[C@H]2[C@H](c3ccc(F)c(Cl)c3)C2(Cl)Cl)cc(C(=O)NCC(F)(F)C(F)(F)F)c1Cl` (relative stereo) [F2039, trans-2-Chloro-5-(2,2-dichloro-3-(3-chloro-4-fluorophenyl)cyclopropane-1-carboxamido)-3-methyl-N-(2,2,3,3,3-pentafluoropropyl)benzamide], the YFM rating entry in test [1] (Yellow Fever Mosquito) is reported as “A (80–100)”. Besides, the pest or weed control at 50 µg/cm2 in test [2] (setting [9]) and in test [4] (setting [11]) was 50 to 100% throughout. Besides, the pest or weed control at 200 µg/mL in test [3] (setting [10]) was in the range of 80 to 100%.

With `CC(=O)Nc1c(F)ccc(NC(=O)c2cc(NC(=O)[C@H]3[C@H](c4cccc(C(F)(F)F)c4)C3(Cl)Cl)ccc2Cl)c1F` [F1678, N-(3-Acetamido-2,4-difluorophenyl)-2-chloro-5-((1R,3R)-2,2-dichloro-3-(3-(trifluoromethyl)phenyl)cyclopropane-1-carboxamido)benzamide], in test [1] (setting [5]), the YFM result was “B (More than 0 – Less than 80)”. The pest or weed control at 50 µg/cm2 in test [2] (setting [6]) and in test [4] (setting [8]) was 50 to 100% throughout. Moreover, in test [3] (setting [7]), the pest or weed control at 200 µg/mL fell in the range of 80 to 100%.

On to `O=C(Nc1ccc(F)cc1F)c1cc(NC(=O)[C@H]2[C@H](c3cc(Cl)c(Cl)c(C(F)(F)F)c3)C2(Cl)Cl)ccc1Cl` (relative stereo) [F1147, trans-2-Chloro-5-(2,2-dichloro-3-(3,4-dichloro-5-(trifluoromethyl)phenyl)cyclopropane-1-carboxamido)-N-(2,4-difluorophenyl)benzamide], for which, in test [1] (setting [12]), the YFM result was “A (80–100)”. Moreover, the pest or weed control at 50 µg/cm2 in test [2] (setting [13]) and in test [4] (setting [15]) was 50 to 100% in each case. For the same compound, the pest or weed control at 200 µg/mL in test [3] (setting [14]) lay in the range of 80 to 100%.

With `O=C(Nc1ccc(F)cc1)c1c(Cl)ccc(NC(=O)[C@H]2[C@H](c3ccc(F)c(Cl)c3)C2(Cl)Cl)c1F` [F1465, 6-chloro-3-((1R,3R)-2,2-dichloro-3-(3-chloro-4-fluorophenyl)cyclopropane-1-carboxamido)-2-fluoro-N-(4-fluorophenyl)benzamide], the YFM result in test [1] (setting [5]) is “A (80–100)”. The pest or weed control at 50 µg/cm2 in test [2] (setting [6]) and in test [4] (setting [8]) was 50 to 100% each time. The pest or weed control at 200 µg/mL in test [3] (setting [7]) lay in the range of 80 to 100%.

Take `O=C(Nc1ccc(F)c(NC(=O)C2CCCC2)c1F)c1cc(NC(=O)[C@H]2[C@H](c3ccc(F)c(C(F)(F)F)c3)C2(Cl)Cl)ccc1Cl` [F1643, 2-Chloro-N-(3-(cyclopentanecarboxamido)-2,4-difluorophenyl)-5-((1R,3R)-2,2-dichloro-3-(4-fluoro-3-(trifluoromethyl)phenyl)cyclopropane-1-carboxamido)benzamide]: in test [1] (setting [5]), the YFM result is “B (More than 0 – Less than 80)”. Besides, the pest or weed control at 50 µg/cm2 in test [2] (setting [6]) and in test [4] (setting [8]) was 50 to 100% in each case. Further, the pest or weed control at 200 µg/mL in test [3] (setting [7]) is 0 to 80%.

As for `O=C(NCCF)c1c(Cl)ccc(NC(=O)[C@H]2[C@H](c3ccc(F)c(Cl)c3)C2(Cl)Cl)c1Cl` (relative stereo) [F2025, trans-2,6-Dichloro-3-(2,2-dichloro-3-(3-chloro-4-fluorophenyl)cyclopropane-1-carboxamido)-N-(2-fluoroethyl)benzamide], the YFM rating entry in test [1] (Yellow Fever Mosquito) is recorded as “A (80–100)”. For the same compound, the pest or weed control at 50 µg/cm2 in test [2] (setting [9]) and in test [4] (setting [11]) was 50 to 100% each time. For the same compound, the pest or weed control at 200 µg/mL in test [3] (setting [10]) is 0 to 80%.

As for `Nc1c(F)ccc(NC(=O)c2cc(NC(=O)[C@H]3[C@H](c4cccc(C(F)(F)F)c4)C3(Cl)Cl)ccc2Cl)c1F` [F1666, N-(3-Amino-2,4-difluorophenyl)-2-chloro-5-((1R,3R)-2,2-dichloro-3-(3-(trifluoromethyl)phenyl)cyclopropane-1-carboxamido)benzamide], the YFM entry in test [1] (setting [5]) is reported as “B (More than 0 – Less than 80)”. The pest or weed control at 50 µg/cm2 in test [2] (setting [6]) and in test [4] (setting [8]) was 50 to 100% each time. The pest or weed control at 200 µg/mL in test [3] (setting [7]) lay in the range of 80 to 100%.

As for `CCNC(=O)c1c(F)ccc(NC(=O)[C@H]2[C@H](c3ccc(F)c(Cl)c3)C2(Cl)Cl)c1F` (relative stereo) [F2016, trans-3-(2,2-Dichloro-3-(3-chloro-4-fluorophenyl)cyclopropane-1-carboxamido)-N-ethyl-2,6-difluorobenzamide], in test [1] (Yellow Fever Mosquito), the YFM rating result is listed as “A (80–100)”. The pest or weed control at 50 µg/cm2 in test [2] (setting [9]) and in test [4] (setting [11]) was 50 to 100% each time. In test [3] (setting [10]), the pest or weed control at 200 µg/mL lay in the range of 80 to 100%.

For the compound `CC(=O)Nc1cccc(F)c1NC(=O)c1cc(NC(=O)[C@H]2[C@H](c3cc(Cl)cc(Cl)c3)C2(Cl)Cl)ccc1Cl` (relative stereo) [F1636, trans-N-(2-Acetamido-6-fluorophenyl)-2-chloro-5-(2,2-dichloro-3-(3,5-dichlorophenyl)cyclopropane-1-carboxamido)benzamide], the YFM result in test [1] (setting [5]) is “A (80–100)”. Besides, the pest or weed control at 50 µg/cm2 in test [2] (setting [6]) and in test [4] (setting [8]) was 50 to 100% each time. Also, the pest or weed control at 200 µg/mL in test [3] (setting [7]) was 0 to 80%.

For `Cc1c(NC(=O)c2cc(NC(=O)[C@H]3[C@H](c4cc(Cl)cc(Cl)c4)C3(Cl)Cl)ccc2Cl)ccc([N+](=O)[O-])c1C` (relative stereo) [F1180, trans-2-chloro-5-(2,2-dichloro-3-(3,5-dichlorophenyl)cyclopropane-1-carboxamido)-N-(2,3-dimethyl-4-nitrophenyl)benzamide], the YFM result in test [1] (setting [12]) is listed as “A (80–100)”. In addition, the pest or weed control at 50 µg/cm2 in test [2] (setting [13]) and in test [4] (setting [15]) was 50 to 100% in each case. The pest or weed control at 200 µg/mL in test [3] (setting [14]) lay within 0 to 80%.

Consider `O=C(CC1CC1)Nc1c(F)ccc(NC(=O)c2cc(NC(=O)[C@H]3[C@H](c4ccc(F)c(Cl)c4)C3(Cl)Cl)ccc2Cl)c1F` [F1702, 2-Chloro-N-(3-(2-cyclopropylacetamido)-2,4-difluorophenyl)-5-((1R,3R)-2,2-dichloro-3-(3-chloro-4-fluorophenyl)cyclopropane-1-carboxamido)benzamide], for which the YFM entry in test [1] (setting [5]) is “A (80–100)”. Besides, the pest or weed control at 50 µg/cm2 in test [2] (setting [6]) and in test [4] (setting [8]) was 50 to 100% in each case. Further, the pest or weed control at 200 µg/mL in test [3] (setting [7]) was in the range of 80 to 100%.

Consider `O=C(Nc1c(F)ccc(NC(=O)C(F)F)c1F)c1cc(NC(=O)[C@H]2[C@H](c3ccc(F)c(Cl)c3)C2(Cl)Cl)ccc1Cl` [F1234, 2-Chloro-5-((1R,3R)-2,2-dichloro-3-(3-chloro-4-fluorophenyl)cyclopropane-1-carboxamido)-N-(3-(2,2-difluoroacetamido)-2,6-difluorophenyl)benzamide], for which the YFM result in test [1] (setting [12]) is “A (80–100)”. Also, the pest or weed control at 50 µg/cm2 in test [2] (setting [13]) and in test [4] (setting [15]) was 50 to 100% in each case. For the same compound, in test [3] (setting [14]), the pest or weed control at 200 µg/mL was 80 to 100%.

With `C#CCN(C(=O)c1cc(NC(=O)[C@H]2[C@H](c3cc(Cl)cc(Cl)c3)C2(Cl)Cl)ccc1Cl)c1ccc(F)cc1C#N` (relative stereo) [F1072, trans-2-Chloro-N-(2-cyano-4-fluorophenyl)-5-(2,2-dichloro-3-(3,5-dichlorophenyl)cyclopropane-1-carboxamido)-N-(prop-2-yn-1-yl)benzamide], the YFM result in test [1] (setting [12]) is “A (80–100)”. Also, the pest or weed control at 50 µg/cm2 in test [2] (setting [13]) and in test [4] (setting [15]) was 50 to 100% in each case. Moreover, the pest or weed control at 200 µg/mL in test [3] (setting [14]) is 0 to 80%.

With `CCOC(C)C(=O)Nc1c(F)ccc(NC(=O)c2cc(NC(=O)[C@H]3[C@H](c4cccc(C(F)(F)F)c4)C3(Cl)Cl)ccc2Cl)c1F` (stereo partly drawn) [F1737, 2-Chloro-5-((1R,3R)-2,2-dichloro-3-(3-(trifluoromethyl)phenyl)cyclopropane-1-carboxamido)-N-(3-(2-ethoxypropanamido)-2,4-difluorophenyl)benzamide], in test [1] (setting [5]), the YFM result was “A (80–100)”. Besides, the pest or weed control at 50 µg/cm2 in test [2] (setting [6]) and in test [4] (setting [8]) was 50 to 100% throughout. In addition, the pest or weed control at 200 µg/mL in test [3] (setting [7]) is 0 to 80%.

Consider `CCN(C(=O)c1cc(NC(=O)[C@H]2[C@H](c3cc(Cl)cc(Cl)c3)C2(Cl)Cl)ccc1Cl)c1ccc(F)cc1C#N` (relative stereo) [F1091, trans-2-Chloro-N-(2-cyano-4-fluorophenyl)-5-(2,2-dichloro-3-(3,5-dichlorophenyl)cyclopropane-1-carboxamido)-N-ethylbenzamide], for which, in test [1] (setting [12]), the YFM entry is given as “A (80–100)”. Moreover, the pest or weed control at 50 µg/cm2 in test [2] (setting [13]) and in test [4] (setting [15]) was 50 to 100% in each case. The pest or weed control at 200 µg/mL in test [3] (setting [14]) lay within 0 to 80%.
